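Protocol summary: plate cells (96-well), add compound at 5 concentrations, incubate 48 h, interpolate endpoints linearly. GI50 marks 50% less growth.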 Calls of active or inactive are those of the source. No stated cut-off is given here; in the data, active = GI50 up to about 1.1 µM and inactive = higher.
Tests used:
Assay in all cases: NCI-60 cell line screen, 48 h
SR = tested on: SR
COLO 205 = tested on: COLO 205
SF-268 = tested on: SF-268
BT-549 = tested on: BT-549
SK-OV-3 = tested on: SK-OV-3
MOLT-4 = tested on: MOLT-4
NCI-H23 = tested on: NCI-H23
HT-29 = tested on: HT-29
RXF 393 = tested on: RXF 393
HCT-15 = tested on: HCT-15
HCC 2998 = tested on: HCC 2998
CCRF-CEM = tested on: CCRF-CEM
HL-60 = tested on: HL-60
KM12 = tested on: KM12
786-0 = tested on: 786-0
PC-3 = tested on: PC-3
NCI/ADR-RES = tested on: NCI/ADR-RES
ACHN = tested on: ACHN
T47D = tested on: T47D

| Compound | GI50 (SR) | GI50 (COLO 205) | GI50 (SF-268) | GI50 (BT-549) | GI50 (SK-OV-3) | GI50 (MOLT-4) | GI50 (NCI-H23) | GI50 (HT-29) | GI50 (RXF 393) | GI50 (HCT-15) | GI50 (HCC 2998) | GI50 (CCRF-CEM) | GI50 (HL-60) | GI50 (KM12) | GI50 (786-0) | GI50 (PC-3) | GI50 (NCI/ADR-RES) | GI50 (ACHN) | GI50 (T47D) |
| --- | --- | --- | --- | --- | --- | --- | --- | --- | --- | --- | --- | --- | --- | --- | --- | --- | --- | --- | --- |
| COc1ccc(N2C(=O)C3c4[nH]c5ccc(Br)cc5c4C4CCC(C(C)(C)C)CC4C3C2=O)cc1 (stereo not given) | > 100 µM (inactive) | > 100 µM (inactive) | > 100 µM (inactive) | > 100 µM (inactive) | > 100 µM (inactive) | > 100 µM (inactive) | > 100 µM (inactive) | > 100 µM (inactive) | > 100 µM (inactive) | > 100 µM | > 100 µM (inactive) | > 100 µM (inactive) | > 100 µM (inactive) | > 100 µM (inactive) | > 100 µM (inactive) | > 100 µM (inactive) | > 100 µM (inactive) | > 100 µM (inactive) |  |
| CCN(CC)Cc1cc(Nc2c3ccccc3nc3c2[nH]c2ccccc23)cc(CN(CC)CC)c1O |  | 0.366 µM (active) | 0.813 µM (active) | 1.41 µM (inactive) | 3.25 µM (inactive) |  | 1.11 µM (active) | 0.35 µM (active) | 0.28 µM (active) | 0.684 µM | 0.836 µM (active) |  | 2.86 µM (inactive) | 0.552 µM (active) | 0.216 µM (active) | 0.64 µM (active) |  | 0.634 µM (active) | 2.67 µM (inactive) |
| C/C1=C\[C@H](C)C[C@H](C)OC(=O)[C@H](C)NC(=O)[C@@H](Cc2ccc(O)c(Br)c2)N(C)C(=O)[C@H](C)NC(=O)[C@@H](C)C1 |  | 0.00728 µM (active) | 0.0331 µM (active) | 0.132 µM (active) | 0.0495 µM (active) | 0.3 µM (active) | 0.462 µM (active) | 0.00783 µM (active) | 0.0656 µM (active) | 0.982 µM | 0.00408 µM (active) | 0.0124 µM (active) | 0.00447 µM (active) | 0.731 µM (active) | 0.00752 µM (active) | 0.0335 µM (active) | 0.126 µM (active) | 0.0326 µM (active) | 0.282 µM (active) |
| O=C1c2ccccc2C(=O)N1CC(O)COc1cccc2ccccc12 (stereo not given) | > 100 µM (inactive) | > 100 µM (inactive) | 85.3 µM (inactive) |  | > 100 µM (inactive) | > 100 µM (inactive) |  | > 100 µM (inactive) |  | > 100 µM | > 100 µM (inactive) | > 100 µM (inactive) | > 100 µM (inactive) |  |  | > 100 µM (inactive) | > 100 µM (inactive) | 76.4 µM (inactive) | > 10 µM (inactive) |
| COc1ccc(-c2cc(-c3ccco3)c(C#N)c(=S)n2C2OC(CO)C(O)C(O)C2O)cc1 (stereo not given) |  | > 100 µM (inactive) | > 100 µM (inactive) | > 100 µM (inactive) | 1.57 µM (inactive) | > 100 µM (inactive) | > 100 µM (inactive) | > 100 µM (inactive) | > 100 µM (inactive) | > 100 µM | 25 µM (inactive) | > 100 µM (inactive) |  | > 100 µM (inactive) | > 100 µM (inactive) | > 100 µM (inactive) | > 100 µM (inactive) | > 100 µM (inactive) |  |
| C[C@H]1C(=O)O[C@@H]1[C@H]1COC(C)(C)O1 | > 100 µM (inactive) |  | > 100 µM (inactive) | > 100 µM (inactive) | > 100 µM (inactive) | > 100 µM (inactive) | > 100 µM (inactive) |  | > 100 µM (inactive) | > 100 µM | > 100 µM (inactive) | 32.5 µM (inactive) | 0.769 µM (active) | > 100 µM (inactive) |  | > 100 µM (inactive) | > 100 µM (inactive) | > 100 µM (inactive) |  |
| CN(C)c1ccc(/N=N/c2ccccn2)cc1 |  | 6.58 µM (inactive) | 51.2 µM (inactive) | 81.3 µM (inactive) | 38.7 µM (inactive) | 4.17 µM (inactive) | 14.2 µM (inactive) | 11.1 µM (inactive) | > 100 µM (inactive) | 25.2 µM | 14.1 µM (inactive) | 4.17 µM (inactive) | 4.26 µM (inactive) | 43.1 µM (inactive) | 49 µM (inactive) | 3.97 µM (inactive) | 5.04 µM (inactive) | 31.8 µM (inactive) | 11.2 µM (inactive) |
| O=C1CCCCC/C1=C\c1ccc(Cl)cc1 | 23.1 µM (inactive) | 18.2 µM (inactive) | 14.5 µM (inactive) | 31.2 µM (inactive) | 60 µM (inactive) | 26.2 µM (inactive) | 31.6 µM (inactive) | 21.8 µM (inactive) |  | 28.1 µM | 26.2 µM (inactive) | 22.6 µM (inactive) |  | 17.7 µM (inactive) | 32.4 µM (inactive) | 19.9 µM (inactive) |  | 32.1 µM (inactive) | 37.3 µM (inactive) |
| CCOC(=O)NC(Nc1ccc(Cl)cn1)(C(F)(F)F)C(F)(F)F | > 100 µM (inactive) |  | > 100 µM (inactive) | > 100 µM (inactive) | > 100 µM (inactive) | > 100 µM (inactive) | > 100 µM (inactive) | > 100 µM (inactive) | 97.5 µM (inactive) | > 100 µM | > 100 µM (inactive) | > 100 µM (inactive) | > 100 µM (inactive) | > 100 µM (inactive) |  |  |  | > 100 µM (inactive) | > 100 µM (inactive) |
